Test results taken from ChEMBL document CHEMBL1201862, “PubChem BioAssay data set” (2004).
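Compound exposure: 48 hours, 5 concentrations, 96-well plates. GI50 is the concentration that inhibits growth by half.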 Active and inactive are the calls of the source. No stated cut-off is given here; in the data, active = GI50 up to about 1.1 µM and inactive = higher.

Columns and labels:
Experiment in all cases: DTP human tumour cell line panel, 48 h
HL-60 = system: HL-60
DU-145 = system: DU-145
SK-MEL-28 = system: SK-MEL-28
LOX IMVI = system: LOX IMVI
UACC-257 = system: UACC-257
UO-31 = system: UO-31
HT-29 = system: HT-29
A498 = system: A498
OVCAR-8 = system: OVCAR-8
BT-549 = system: BT-549
OVCAR-5 = system: OVCAR-5
A549 = system: A549
Malme-3M = system: Malme-3M
PC-3 = system: PC-3
U-251 = system: U-251
NCI-H226 = system: NCI-H226
HCT-15 = system: HCT-15
NCI-H460 = system: NCI-H460
SF-539 = system: SF-539
Hs-578T = system: Hs-578T

Row | SMILES | GI50 (HL-60) | GI50 (DU-145) | GI50 (SK-MEL-28) | GI50 (LOX IMVI) | GI50 (UACC-257) | GI50 (UO-31) | GI50 (HT-29) | GI50 (A498) | GI50 (OVCAR-8) | GI50 (BT-549) | GI50 (OVCAR-5) | GI50 (A549) | GI50 (Malme-3M) | GI50 (PC-3) | GI50 (U-251) | GI50 (NCI-H226) | GI50 (HCT-15) | GI50 (NCI-H460) | GI50 (SF-539) | GI50 (Hs-578T)
1 | COCCOC1=CC(=O)c2c(O)ccc(O)c2C1=O | 0.52 µM (active) | 0.893 µM (active) | 1.52 µM (inactive) | 0.726 µM (active) | 0.203 µM (active) | 2.17 µM (inactive) | 0.585 µM (active) | 1.79 µM (inactive) | 1.73 µM (inactive) | 1.77 µM (inactive) | 1.61 µM (inactive) | 2 µM (inactive) | 0.167 µM (active) | 2.34 µM (inactive) | 1.92 µM (inactive) | 2.23 µM (inactive) | 1.02 µM | 1.58 µM (inactive) | 1.73 µM (inactive) | 4.04 µM (inactive)
2 | COC(=O)c1cc(C)ccc1CC(Cc1ccccc1C)C(=O)OC (stereo not given) | 13.2 µM (inactive) | > 100 µM (inactive) | 88.1 µM (inactive) | 12.5 µM (inactive) | 27 µM (inactive) | 31 µM (inactive) | 22 µM (inactive) | 60.4 µM (inactive) | 45.5 µM (inactive) | 61.7 µM (inactive) |  | 51.6 µM (inactive) | 23.2 µM (inactive) | 55.2 µM (inactive) |  | 81.7 µM (inactive) | 21.4 µM | 78 µM (inactive) | > 100 µM (inactive) | 27.9 µM (inactive)
3 | Cc1nn(-c2ccccc2)c2c1C(c1cc3ccccc3nc1Cl)NC(=S)N2 (stereo not given) | 35.5 µM (inactive) | > 100 µM (inactive) |  | 22.6 µM (inactive) | > 100 µM (inactive) | 20.8 µM (inactive) | 44.9 µM (inactive) | 71 µM (inactive) | 27.9 µM (inactive) | 47.4 µM (inactive) | > 100 µM (inactive) | > 100 µM (inactive) | > 100 µM (inactive) | 67.1 µM (inactive) | 23.4 µM (inactive) | > 100 µM (inactive) | 31.8 µM | > 100 µM (inactive) | 24.8 µM (inactive) | 37.7 µM (inactive)
4 | CC1=CC(=O)CC(C)(C)C1(O)/C=C/C(C)=C/C(=O)O (stereo not given) | > 100 µM (inactive) | > 100 µM (inactive) | > 100 µM (inactive) | > 100 µM (inactive) | > 100 µM (inactive) | > 100 µM (inactive) | > 100 µM (inactive) | > 100 µM (inactive) | > 100 µM (inactive) | > 100 µM (inactive) | > 100 µM (inactive) | > 100 µM (inactive) | > 100 µM (inactive) | > 100 µM (inactive) | > 100 µM (inactive) | > 100 µM (inactive) | > 100 µM | > 100 µM (inactive) | > 100 µM (inactive) | > 100 µM (inactive)
5 | CCCCCCCCCCCCOC1C(COCCN2CCCC2)OC2OC(C)(C)OC21 (stereo not given) | 0.927 µM (active) | 10.9 µM (inactive) | 1.72 µM (inactive) | 1.4 µM (inactive) | 1.75 µM (inactive) | 1.6 µM (inactive) | 1.55 µM (inactive) | 14 µM (inactive) | 1.64 µM (inactive) | 1.66 µM (inactive) | 1.51 µM (inactive) | 4.42 µM (inactive) | 1.92 µM (inactive) | 1.65 µM (inactive) | 1.73 µM (inactive) | 2.56 µM (inactive) | 1.76 µM |  | 1.76 µM (inactive) | 1.76 µM (inactive)
6 | O=C1CCc2cc(Br)ccc2O1 | > 100 µM (inactive) | > 100 µM (inactive) | > 100 µM (inactive) | 50.5 µM (inactive) | > 100 µM (inactive) |  | > 100 µM (inactive) | 37.8 µM (inactive) | > 100 µM (inactive) | 62.8 µM (inactive) | > 100 µM (inactive) | > 100 µM (inactive) | > 100 µM (inactive) | > 100 µM (inactive) | 30 µM (inactive) | > 100 µM (inactive) | > 100 µM | > 100 µM (inactive) | 32.9 µM (inactive) | 22.4 µM (inactive)
7 | O=C1NN=C(c2ccc(Cl)cc2)CC1C1C(=O)N(c2ccccc2)N=C1c1ccccc1 (stereo not given) | 37.2 µM (inactive) | 53.7 µM (inactive) | 36.7 µM (inactive) | 18.2 µM (inactive) |  | 21.5 µM (inactive) | 32.9 µM (inactive) | 26.2 µM (inactive) | 41.9 µM (inactive) | 20 µM (inactive) | 28.9 µM (inactive) | 34 µM (inactive) | 30.7 µM (inactive) | 22.2 µM (inactive) | 33 µM (inactive) | 31.8 µM (inactive) | 31.3 µM | 28.1 µM (inactive) | 25.9 µM (inactive) | 18.8 µM (inactive)
8 | N#CC(C#N)/N=N/c1ccc(-c2nc3ccccc3o2)cc1 | 5.48 µM (inactive) | 13.3 µM (inactive) | 6.12 µM (inactive) | 13.1 µM (inactive) | 4.41 µM (inactive) | 13 µM (inactive) | 12.8 µM (inactive) | 13.9 µM (inactive) | 23.6 µM (inactive) | 12.1 µM (inactive) | 17.4 µM (inactive) | 21 µM (inactive) | 13.3 µM (inactive) | 8 µM (inactive) | 14.3 µM (inactive) |  | 14.8 µM | 13.9 µM (inactive) | 12.2 µM (inactive) | 42 µM (inactive)
9 | O=C(Nc1ccc2ncccc2c1)Nc1ccc2ncccc2c1 |  | > 100 µM (inactive) | > 100 µM (inactive) | > 100 µM (inactive) | > 100 µM (inactive) | > 100 µM (inactive) | > 100 µM (inactive) | > 100 µM (inactive) | > 100 µM (inactive) | > 100 µM (inactive) | > 100 µM (inactive) | > 100 µM (inactive) | > 100 µM (inactive) | > 100 µM (inactive) | > 100 µM (inactive) | > 100 µM (inactive) | > 100 µM | > 100 µM (inactive) | > 100 µM (inactive) | > 100 µM (inactive)
10 | N#Cc1ccc(CSC2=C(c3ccc(Cl)cc3)S/C(=C3\SC(SCc4ccc(C#N)cc4)=C(c4ccc(Cl)cc4)S3)S2)cc1 | > 100 µM (inactive) | > 100 µM (inactive) | > 100 µM (inactive) | > 100 µM (inactive) | > 100 µM (inactive) |  | > 100 µM (inactive) | > 100 µM (inactive) | > 100 µM (inactive) | > 100 µM (inactive) | > 100 µM (inactive) | > 100 µM (inactive) | > 100 µM (inactive) | > 100 µM (inactive) | > 100 µM (inactive) | > 100 µM (inactive) | > 100 µM | > 100 µM (inactive) | > 100 µM (inactive) | > 100 µM (inactive)
11 | COc1cc(N(CCC#N)CCC#N)ccc1C(/N=N/c1cccc(C)c1)=N\NC(=O)c1ccc(C)cc1 | 47.3 µM (inactive) | > 100 µM (inactive) | > 100 µM (inactive) | > 100 µM (inactive) | > 100 µM (inactive) | > 100 µM (inactive) | > 100 µM (inactive) | 4.78 µM (inactive) | > 100 µM (inactive) | > 100 µM (inactive) | > 100 µM (inactive) | > 100 µM (inactive) | 43.5 µM (inactive) | > 100 µM (inactive) | 45.8 µM (inactive) | > 100 µM (inactive) | > 100 µM | 25.9 µM (inactive) |  | > 100 µM (inactive)
12 | CC(C)(C)c1cc(C2=NNC(c3ccccc3)C2)cc(C(C)(C)C)c1O (stereo not given) |  | 15.5 µM (inactive) | 15.9 µM (inactive) | 15.9 µM (inactive) | 14.3 µM (inactive) | 15 µM (inactive) | 17.7 µM (inactive) | 15.3 µM (inactive) | 16.7 µM (inactive) | 17.1 µM (inactive) | 21.1 µM (inactive) | 15.3 µM (inactive) | 17.9 µM (inactive) | 14.6 µM (inactive) | 15.5 µM (inactive) | 17.2 µM (inactive) | 13.8 µM | 15.4 µM (inactive) | 19.8 µM (inactive) | 19.1 µM (inactive)
13 | COc1ccc(-n2c(C)nc3ccc(NC4OCC(OC(C)=O)C(OC(C)=O)C4OC(C)=O)cc3c2=O)cc1 (stereo not given) | 32.4 µM (inactive) | > 100 µM (inactive) | > 100 µM (inactive) | > 100 µM (inactive) | > 100 µM (inactive) | > 100 µM (inactive) | > 100 µM (inactive) | > 100 µM (inactive) | > 100 µM (inactive) | > 100 µM (inactive) | > 100 µM (inactive) |  | > 100 µM (inactive) | > 100 µM (inactive) | > 100 µM (inactive) | > 100 µM (inactive) | > 100 µM | > 100 µM (inactive) |  | > 100 µM (inactive)
14 | Cc1nnc(N2C(=O)C(=Cc3ccc(Cl)cc3)N=C2c2ccc(Cl)cc2)nc1/C=C\c1ccc(N(C)C)cc1 | 93.8 µM (inactive) | > 100 µM (inactive) | > 100 µM (inactive) | > 100 µM (inactive) | > 100 µM (inactive) | 50.8 µM (inactive) | > 100 µM (inactive) | > 100 µM (inactive) | > 100 µM (inactive) | > 100 µM (inactive) | > 100 µM (inactive) | > 100 µM (inactive) | > 100 µM (inactive) | > 100 µM (inactive) | > 100 µM (inactive) | > 100 µM (inactive) | > 100 µM | > 100 µM (inactive) |  | > 100 µM (inactive)
15 | COC(=O)NN(C(=O)OC)c1c(-c2ccccc2)nc(SC)n1N | > 100 µM (inactive) | > 100 µM (inactive) | > 100 µM (inactive) | > 100 µM (inactive) | > 100 µM (inactive) | > 100 µM (inactive) |  | > 100 µM (inactive) | > 100 µM (inactive) | > 100 µM (inactive) | > 100 µM (inactive) | > 100 µM (inactive) | > 100 µM (inactive) | > 100 µM (inactive) | > 100 µM (inactive) | > 100 µM (inactive) | > 100 µM | > 100 µM (inactive) | > 100 µM (inactive) | > 100 µM (inactive)
